From patent publication US20070281036A1, “System and method of delivering a desired material to a cell” (University of Vermont and State Agricultural College, priority 2005, published 2007)

Assays:
[1] = test system: phosphorylated histone protein H2AX (γH2AX); experiment: Immunocytochemical analysis of γH2AX; assay type: cell-based, human; conditions: 80 nM DOX; 8 and 24 h; compared to control
Experimental: Mechanisms of Cytotoxicity. To explore mechanisms of toxicity of DOX at low concentrations delivered by APMS, levels of phosphorylated histone protein H2AX (γH2AX), a marker of DNA double strand breaks, and Apoptosis Inducing Factor (AIF), a marker of mitochondrial mediated apoptosis, were analyzed.
Immunocytochemical Analysis ofphosphorylated histone protein H2AX (γH2AX). Monolayers of cells were grown on glass coverslips and treated as described above. Cells were then washed in PBS, then fixed in 4% paraformaldehyde and permeabilized in 0.1% Triton X-100. Cells were blocked for 1 h at room temperature in PBS containing 3% bovine serum albumin (BSA), then incubated in a 1:500 dilution of mouse monoclonal anti-phospho-histone H2AX antibody (#05-636, Upstate Cell Signaling, Charlottesville, Va.) in 3% BSA overnight at 4° C. Cells were then washed in PBS and incubated in a 1:300 dilution of goat anti-mouse IgO conjugated to Alexa-647 fluorescent tag (Molecular Probes, Invitrogen) in PBS for 45 min at room temperature in the dark. […] Coverslips were then washed and mounted on glass slides using Aqua Poly/Mount (#18606, Polysciences, Inc., Warrington, Pa.) and analyzed using a Zeiss LSM 510 META confocal scanning laser microscope (Carl Zeiss Microimaging).

[2] = test system: AKT; experiment: Western blot for phosphorylated AKT; assay type: cell-based, human; conditions: 80 nM DOX; each time point
Experimental: (§1) Western Blot Analyses for Phosphorylated ERK's1/2 and AKT To determine whether DOX at low concentrations delivered by APMS modified signaling pathways associated with cell survival, nearly confluent MM cells were washed 3× with cold PBS, scraped from culture plates, and collected by centrifugation at 14,000 rpm for 1 min. The pellet was resuspended in lysis buffer [20 mM Tris (pH 7.4), 1% Triton X-100, 10% glycerol, 137 mM NaCl, 2 mM EDTA, 25 mM β-glycerophosphate, 1 mM Na3VO4, 2 mM pyrophosphate, 1 mM PMSF, 10 μg/ml leupeptin, 1 mM DTT, 10 mM NaF, 1% aprotinin], incubated at 4° C. for 15 min, and centrifuged at 14,000 rpm for 20 min. Protein concentrations were determined using a Bio-Rad RC-DC Assay (Bio-Rad Laboratories, Hercules, Calif.). […] of protein in sample buffer [62.5 mM Tris-HCl (pH 6.8), 2% sodium dodecyl sulfate (SDS), 10% glycerol, 50 mM dithiothreitol, 0.1% w/v bromophenol blue] was resolved by electrophoresis in 10% SDS-polyacrylamide gels, and transferred to nitrocellulose using a Mini Trans-Blot Cell apparatus (Bio-Rad Laboratories). […] Blots were washed 3× in TBS/0.1% Tween-20, and protein bands were visualized with the ECL Western Blotting Detection Reagents (Amersham Biosciences, GE Healthecare UK Limited, Buckinghamshire, UK) and quantitated using a Bio-Rad phosphorimager.

[3] = test system: human mesothelioma cells; assay type: cell-based
Experimental: We have also modified existing HPLC methods (Andersen et al, 1993, 1994; De Bruijn et al, 1999) to compare the amounts of DOX transferred to cellular interiors by DOX-loaded APMS and DOX alone. More DOX is transferred to cells when it is preloaded into APMS than when it is administered alone. Briefly, measurement of cellular DOX concentrations was accomplished by lysis and enzymatic digestion of the cellular contents, along with centrifugation. […] Similar methodology was used to quantify the amount of extracellular DOX, and since the total amount of DOX within the APMS particles prior to its addition to the cell culture was known, the amount of DOX remaining within the particles could be determined (FIG. 7). Intracellular and extracellular amounts of DOX were measured by fluorescence HPLC after digestion and release of DOX from cellular material (FIG. 7A). […]
Preloading APMS with Doxorubicin (DOX). […] The concentration of DOX within the APMS were calculated theoretically and verified via HPLC following hydration overnight in water or methanol at room temperature, as previously described (13). Concentrations of DOX in cells were measured. […] Similar methodology was used to quantify the amount of extracellular DOX, and since the total amount of DOX within the APMS particles prior to its addition to the cell culture was known, the amount of DOX remaining within the particles could be determined.

[4] = test system: ERK1/2; experiment: Western blot for phosphorylated ERK1/2; assay type: cell-based, human; conditions: 80 nM DOX; 4, 8, 24 and 48 h
Experimental: as §1

[5] = test system: human mesothelioma (MM) cells; experiment: LDH release assay of cell lysis, MM cells; conditions: doses of DOX ranging from 800 nM to 2000 nM; 48 h
Experimental: Cells were plated and grown to 70-80% confluence at 37° C. in complete medium. Medium was aspirated and replaced with maintenance medium containing 0.5% FBS, and incubated for 24 hrs.
Briefly, cells were treated with APMS and/or DOX alone and in combination for varying amounts of time, and 50 μl of the supernatant was removed (in triplicate) and placed into wells of a 96-well plate. Fifty μl of substrate buffer was added to each well, and the plate was incubated for 30 min at room temperature in the dark. Fifty μl of stop solution was then added, and plates were read at 490 nm.

[6] = test system: NF-κB; experiment: NF-κB electrophoretic mobility shift assay; assay type: cell-based, human
Experimental: NF-κB Electrophoretic Mobility Shift Assay. Electrophoretic gel mobility shift assays were used to assess the binding of NF-κB to DNA. Nuclear extracts of MM cells treated with 80 nM DOX, 100 μM DOX, APMS-TEG, APMS-TEG preloaded with 80 nM DOX (APMS-DOX80) for 4 h, were prepared as described previously (14). Samples were treated with or without TNF-α, 1 h prior to harvesting nuclear protein. The amount of protein in each sample was determined with the Bio-Rad protein assay (Bio-Rad). A ^32P-end-labeled double stranded oligodeoxynucleotide representing the specific element that contains an NF-κB consensus sequence (E3292, Promega, Madison, Wis.) was incubated with 3 μg of extract as described previously (15). The components of the NF-κB complex were identified by antibodies specific for p50 and p65 proteins (Santa Cruz Biotechnology, Inc., Santa Cruz, Calif.). Autoradiograms were developed and quantitated with a Bio-Rad phosphorimager.

[7] = test system: MM cells; experiment: MTS cell viability assay; assay type: cell-based, human; conditions: 80 nM DOX; varying amounts of time
Experimental: Cell viability was measured in treated cells by using the calorimetric MTS Assay, CellTiter 96 AQueous One Solution Cell Proliferation Assay (Promega) as per the manufacturer's recommendations. Briefly, 5×10^3 cells were plated in a 96-well microtiter plate and allowed to recover overnight. Medium was aspirated, and cells were maintained in a low serum-containing medium for 24 h prior to treatment for varying amounts of time with APMS and/or DOX. MTS reagent was added, plates were incubated at 37° C. for 2-3 h and the absorbance of the wells was read at 492 nm as a measure of cell viability.

[8] = test system: MM cells; experiment: Flow cytometry of mechanisms of APMS uptake; assay type: cell-based, human; conditions: 30 min pretreatment; chlorpromazine 5 μg/ml, cytochalasin D 1 μM, filipin 6.25 μg/ml; vs control at 37° C.
Experimental: Cells were exposed for 30 min to chemical inhibitors of specific uptake mechanisms: chlorpromazine ([…]), cytochalasin D (1 μM), or filipin (6.25 μg/ml), i.e. at effective concentrations as reported in the literature (25-29), or incubated at 4° C. for 30 min prior to addition of APMS for various amounts of time. Hoechst 33342 nucleic acid dye (16.2 μM) (Molecular Probes, Invitrogen) was added 15 min prior to harvesting cells. Cells were washed once in PBS and removed from dishes using Accutase cell detachment solution (Innovative Cell Technologies, Inc. San Diego, Calif.), pelleted by centrifugation, resuspended in calcium and magnesium-free phosphate buffered saline (PBS), and kept on ice until analyzed. Samples were analyzed using a BD LSRII flow cytometer (BD Biosciences, San Jose, Calif.) equipped with a Sapphire 488 (Coherent, Santa Clara, Calif.) laser which emits at 488 nm to excite the Alexa 488 dye, and a solid state Xcite (Lightwave) which emits at 355 nm to excite the Hoechst 333342 nucleic acid dye (Molecular Probes, Invitrogen). Data analysis was performed at the time of acquisition using Flow Jo (Tree Star, Inc., Ashland, Oreg.). This software package is an experiment-based flow cytometry data analysis package designed for multi-color research.
To verify that the gating used in determining cell populations was accurate, FACS analysis was performed on different populations. Populations of cells/APMS were selected based on their locations on histograms, and were sorted, collected and mounted on glass slides using cytocentriftigation. […] The fluorescent signals from Alexa 488 were detected using 530/30 BP and 505 LP filters. Hoechst staining was detected using 440/40 BP filter. Identification and quantification of populations on cytospins were performed manually with phase contrast and fluorescence microscopy using an Olympus BX50 microscope (Olympus America, Lake Success, N.Y.).

COc1cccc2c1C(=O)c1c(O)c3c(c(O)c1C2=O)C[C@@](O)(C(=O)CO)C[C@@H]3O[C@H]1C[C@H](N)[C@H](O)[C@H](C)O1 [DOX, doxorubicin]
levels of γH2AX [1]: increased
phospho-AKT: total AKT ratios [2]: did not significantly affect
amount of DOX transferred to the cell relative to DOX preloaded into APMS [3]: Approximately half as much
maximum amount of DOX transferred to the cellular interior, of the initial dose ([3]; human): approximately 25%
phospho-ERK1/2: total ERK1/2 ratio [4]: do not significantly affect
cell death compared to total LDH released from lysed cells [5]: 10-13%
NF-κB-DNA binding after adding TNF-α 1 hr prior to harvesting ([6]; 80 nM DOX): further increased the DNA binding
NF-κB-DNA binding after adding TNF-α for 1 h prior to harvesting ([6]; 100 μM DOX): could not be reversed
NF-κB-DNA binding activity ([6]; 100 μM DOX (a lethal concentration), 4 h): ablated
NF-κB-DNA binding activity ([6]; 4 h exposure, 80 nM DOX, compared to controls): increased
cell viability (MTS) [7]: no significant difference

CN(C)CCCN1c2ccccc2Sc2ccc(Cl)cc21 [chlorpromazine]
effect of inhibitor pretreatment on APMS-TEG particle uptake [8]: no inhibition

C=C1[C@@H](C)[C@H]2[C@H](Cc3ccccc3)NC(=O)[C@]23[C@H](OC(C)=O)/C=C/[C@@](C)(O)C(=O)[C@@H](C)C/C=C/[C@H]3[C@@H]1O [cytochalasin D]
effect of inhibitor pretreatment on APMS-TEG particle uptake [8]: decreased numbers of APMS-containing cells

CCCCC[C@@H](O)[C@H]1C(=O)O[C@H](C)[C@@H](O)/C=C/C=C/C=C/C=C/C=C(\C)[C@@H](O)C[C@H](O)C[C@H](O)C[C@H](O)C[C@H](O)C[C@H](O)C[C@@H]1O [filipin]
effect of inhibitor pretreatment on APMS-TEG particle uptake [8]: no inhibition

TNF-α
NF-κB DNA binding ([6]; 1 hr incubation): dramatically increased DNA binding
